For 20 compounds, EC50 results are on record in BindingDB's records for doi:10.7270/Q2NV9GP9 (Burnham Center For Chemical Genomics, 2010).

pEC50: −log10 of the molar value. Some results are limits rather than exact numbers.

One test deals with T1, Apelin receptor (Homo sapiens, UniProt P35414).
T1 sequence (P35414 whole entry): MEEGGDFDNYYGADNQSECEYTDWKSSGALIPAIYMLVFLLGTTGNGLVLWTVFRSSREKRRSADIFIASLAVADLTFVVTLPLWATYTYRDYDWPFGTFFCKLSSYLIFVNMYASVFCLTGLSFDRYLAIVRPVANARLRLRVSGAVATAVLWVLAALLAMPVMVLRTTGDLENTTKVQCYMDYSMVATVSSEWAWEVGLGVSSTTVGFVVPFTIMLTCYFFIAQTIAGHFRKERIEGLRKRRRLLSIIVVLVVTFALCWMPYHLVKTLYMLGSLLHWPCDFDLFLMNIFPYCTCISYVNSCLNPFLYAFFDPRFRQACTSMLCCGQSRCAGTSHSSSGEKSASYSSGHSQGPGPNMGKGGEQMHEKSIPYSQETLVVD
In words: apelin receptor activators, concentration-response – cell-based, luminescence, uHTS hits, dose response (AID 488748).
Conditions: not given
For the compound `CCCSc1nc(O)c(CC)c(=O)n1C(C)CC` (stereo not given) [1-butan-2-yl-5-ethyl-6-oxidanyl-2-propylsulfanyl-pyrimidin-4-one], the pEC50 was 4.24.
Same read-out and setting: in the case of `Cc1cccc2sc(N(CCCN(C)C)C(=O)c3ccc(S(=O)(=O)N4CCc5ccccc5C4)cc3)nc12` [SMR000807812] it was less than 4.00; in that of `COc1cc2c(cc1NC(=O)c1cccc([N+](=O)[O-])c1)oc1ccccc12` [SMR000187222], less than 4.00; in that of `CCOc1cccc2sc(N(CCCN(C)C)C(=O)c3ccc(S(=O)(=O)N(C)Cc4ccccc4)cc3)nc12` [MLS001239362], less than 4.00.
`CCCc1cc(C(=O)Nc2sc3c(c2C(=O)OCC)CCCC3)no1` [MLS000116384] showed a pEC50 of less than 4.00.
Same read-out and setting: in the case of `COc1ccc(CN=Nc2cc(C)nc3ccc(OC)cc23)c(OC)c1` it was less than 4.00.
`Cc1cc(C)c2sc(NNC(=O)c3ccc(S(=O)(=O)N4CCc5ccccc5C4)cc3)nc2c1` showed a pEC50 of less than 4.00.
Same read-out and setting: the figure for `CC1CCN(S(=O)(=O)c2ccc3nc(-c4ccccn4)cc(C(=O)NCCN(C)Cc4ccccc4)c3c2)CC1` [MLS000682486] is less than 4.00; for `CC1=NOC(=O)/C1=C\c1ccc(-c2cc(Cl)ccc2Cl)o1` [SMR000141784] it is less than 4.00.
With `O=C(Cn1ncc2c([nH]c3ccccc32)c1=O)Nc1ccc(CN2CCCCC2)cc1` [SMR000629297], the pEC50 is less than 4.00.
For the compound `COC(=O)CCCC1=CC2=CC(=O)C(C)(OC(=O)c3cccs3)C(=O)C2=CN1C1CCCCC1` (stereo not given) [[2-cyclohexyl-3-(4-methoxy-4-oxobutyl)-7-methyl-6,8-dioxoisoquinolin-7-yl] thiophene-2-carboxylate], the pEC50 was less than 4.00.
`CC1CCN(S(=O)(=O)c2ccc3nc(N4CCN(c5ccccc5)CC4)ccc3c2)CC1` [SMR000630335] had a pEC50 of less than 4.00.
Still for that read-out and setting: in the case of `COc1ccc2nc(O)c(C(c3nnnn3CC3CCCO3)N3CCc4ccccc4C3)cc2c1` (stereo not given) [3-{(3,4-Dihydro-1H-isoquinolin-2-yl)-[1-(tetrahydro-furan-2-ylmethyl)-1H-tetrazol-5-yl]-methyl}-6-methoxy-1H-quinolin-2-one] it was less than 4.00; in that of `Clc1ccccc1CSc1nnc(-c2ccncc2)o1` [2-{[(2-chlorophenyl)methyl]sulfanyl}-5-(pyridin-4-yl)-1,3,4-oxadiazole], less than 4.00; in that of `CCc1ccc2nc(N(CCCN(C)C)C(=O)c3ccc(S(=O)(=O)N4CCc5ccccc5C4)cc3)sc2c1` [MLS001239341], less than 4.00.
On the same count and under the same terms, in the case of `COc1ccc2[nH]c(=O)c(CN(Cc3ccco3)C(c3nnnn3Cc3ccccc3)C(C)C)cc2c1` (stereo not given) [SMR000123514] it was less than 4.00.
`Cc1ccc(S(=O)(=O)Nc2nc(-c3ccccc3)cs2)cc1` gave a pEC50 of less than 4.00.
Same read-out and setting: the figure for `CCOc1cc2[nH]c(=S)n(CCCC(=O)NCc3ccccn3)c(=O)c2cc1OCC` is less than 4.00; for `COc1ccccc1-n1c(SC)nc(O)cc1=O` it is 4.23.

The test is the same for the next values; noted with them: inactive by the depositor's call.
`Cc1cc(C)n2nc3nc(N4CCCCC4)nc(-c4ccco4)c3c2n1` [4-(2-furyl)-6,8-dimethyl-2-piperidin-1-ylpyrimido[4',5':3,4]pyrazolo[1,5-a]pyrimidine] had a pEC50 of 4.02.
